Measured values: the NIST ThermoML archive (doi:10.1021/acs.jced.5b00682)

Key:
[1] = xn = mol fraction of the nth substance listed; conditions: 101 kPa, Liquid, Frequency=0.001 MHz, Alternating current cell with electrodes
[2] = 101.33 kPa, Liquid, Alternating current cell with electrodes

[Cl-].[Cs+] [cesium chloride] + [Cl-].[Li+]
electrical conductivity [S/m], [1]
Conditions	x1 = 0.42	x1 = 0.425
593.5 K	33.3	–
598.5 K	35.5	–
603 K	–	33.3
603.5 K	37.9	–
608 K	–	35.5
610.5 K	41.1	–
613 K	–	37.5
613.5 K	42.4	–
618 K	–	39.8
623 K	–	42
623.5 K	47.1	–
628 K	–	44.2
628.5 K	49.5	–
629 K	52.4	–
633 K	–	46.5
633.5 K	52	–
638 K	57.1	48.8
643 K	–	51.2
643.5 K	57	–
648 K	–	53.4
650 K	62.1	–
650.5 K	60.5	–
653 K	–	55.9
653.5 K	62	–
658 K	66.5	58.2
663 K	–	60.6
663.5 K	67.1	–
668 K	–	63
670 K	72.1	–
670.5 K	70.6	–
673 K	–	65.4
673.5 K	72.1	–
678 K	76.6	67.8
683 K	–	70.1
683.5 K	77.2	–
688 K	–	72.5
690 K	82.2	–
690.5 K	80.6	–
693 K	–	74.9
693.5 K	82.2	–
698 K	86.9	77.1
703 K	–	79.6
703.5 K	87	–
708 K	–	81.7
710 K	91.8	–
710.5 K	90.2	–
713 K	–	84
718 K	97.1	86.3
723 K	–	88.4

O=[N+]([O-])[O-].[K+] [potassium nitrate]
[2]
Conditions	electrical conductivity [S/m]
618.5 K	64.7
623.5 K	66.2
624.6 K	66.5
626.5 K	67.1
627.9 K	67.5
628.4 K	67.7
628.5 K	67.7
630.5 K	68.3
631.5 K	68.5
633.5 K	69.1
633.6 K	69.1
633.8 K	69.2
636.7 K	70.1
638.5 K	70.6
648.5 K	73.4
649.6 K	73.7
653.5 K	74.9
658.5 K	76.3
659.6 K	76.6
663.5 K	77.7
665 K	78.2

O=[N+]([O-])[O-].[Na+] [sodium nitrate]
[2]
Conditions	electrical conductivity [S/m]
583 K	98.7
593 K	103
603 K	108
613 K	112
623 K	116
633 K	121
643 K	125
